The record followed here is paper PMC9170154, “Identification of an arthropod molecular target for plant-derived natural repellents” (Proceedings of the National Academy of Sciences of the …, 2022).

SMILES strings stand for the structures. Substitutions are numbered along the chain they refer to.

Experiment in all cases: whole-cell patch clamp, HEK […]
The test system of test [1] is T1, sTRP1 (scorpion TRP1).
T1 construct: full-length cDNA (791 residues) cloned by RACE PCR, in pIRES2-EGFP vector, transiently expressed in HEK 293T cells
It counts as cell-based, Olivierus martensii. The settings on record: current evoked by 2 mM citronellal after sensitization.

Test [2] has as its target T2, dTRPγ (Drosophila melanogaster, UniProt Q9VJJ7).
T2 construct: gene Trpgamma
T2 sequence (Q9VJJ7 1-1128): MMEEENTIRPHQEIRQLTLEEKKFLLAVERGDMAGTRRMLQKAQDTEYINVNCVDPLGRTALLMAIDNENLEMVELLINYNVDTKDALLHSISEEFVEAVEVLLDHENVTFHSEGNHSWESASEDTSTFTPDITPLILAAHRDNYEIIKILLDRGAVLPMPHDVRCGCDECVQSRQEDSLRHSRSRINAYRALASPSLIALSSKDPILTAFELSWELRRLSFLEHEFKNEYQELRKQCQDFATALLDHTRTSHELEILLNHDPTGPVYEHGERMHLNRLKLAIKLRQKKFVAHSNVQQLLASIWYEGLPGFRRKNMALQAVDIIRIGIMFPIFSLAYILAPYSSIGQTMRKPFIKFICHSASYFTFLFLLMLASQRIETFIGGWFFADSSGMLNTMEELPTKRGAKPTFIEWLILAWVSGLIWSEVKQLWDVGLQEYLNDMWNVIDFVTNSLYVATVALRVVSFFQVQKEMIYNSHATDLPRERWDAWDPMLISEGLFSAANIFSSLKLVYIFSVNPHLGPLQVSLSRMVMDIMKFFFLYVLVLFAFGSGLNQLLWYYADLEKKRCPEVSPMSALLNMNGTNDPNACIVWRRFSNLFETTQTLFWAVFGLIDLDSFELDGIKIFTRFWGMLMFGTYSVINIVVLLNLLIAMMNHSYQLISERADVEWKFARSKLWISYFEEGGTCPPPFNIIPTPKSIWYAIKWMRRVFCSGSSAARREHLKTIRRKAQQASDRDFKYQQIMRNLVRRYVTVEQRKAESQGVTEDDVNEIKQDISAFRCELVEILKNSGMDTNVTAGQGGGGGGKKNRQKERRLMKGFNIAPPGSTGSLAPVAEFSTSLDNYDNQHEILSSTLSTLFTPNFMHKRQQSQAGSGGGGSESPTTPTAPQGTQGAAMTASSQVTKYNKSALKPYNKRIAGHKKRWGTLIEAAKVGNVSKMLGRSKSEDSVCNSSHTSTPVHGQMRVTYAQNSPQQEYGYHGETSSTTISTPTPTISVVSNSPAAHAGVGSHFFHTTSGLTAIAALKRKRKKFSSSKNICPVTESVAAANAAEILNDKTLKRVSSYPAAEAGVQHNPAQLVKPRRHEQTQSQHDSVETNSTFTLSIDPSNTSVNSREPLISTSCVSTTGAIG
It counts as cell-based. The settings on record: agonist.

For test [3], the system named is T1, sTRP1 (scorpion TRP1). It counts as cell-based, Olivierus martensii. Particulars: agonist, after full sensitization.
Test [4] has as its target T2, dTRPγ. It counts as cell-based. Particulars: dTRPγ mutant.
The target in test [5] is T2, dTRPγ. It counts as cell-based.
Test [6] deals with T3, dTRPγ (Drosophila melanogaster, UniProt Q9VJJ7, V515A).
T3 construct: gene Trpgamma
T3 sequence (Q9VJJ7 1-1128 V515A): T2 sequence (Q9VJJ7 1-1128) with V515A
It counts as cell-based. The settings on record: dTRPγ mutant.

Broadly, the IC50 is the concentration that inhibits the measured activity by half. Take `NCCOB(c1ccccc1)c1ccccc1` [2-aminoethoxydiphenyl borate]: in test [1] (inhibitor, nH 1.3), the IC50 is 48.3 ± 5.58 µM.

Usually EC50 stands for the concentration giving half of the maximal effect. With `CC12CCC(CC1=O)C2(C)C` (centres unmarked) [camphor], the “whole-cell patch clamp, HEK 293T” value in test [2] was “We here show that camphor activates both sTRP1 and dTRPγ (SI Appendix, Fig. S11)”. Moreover, the concentration giving a half-maximal response (EC50) in test [3] (nH 2.4) worked out at 3300 ± 200 µM.

Consider `CC(C)=CCCC(C)CC=O` (centres unmarked) [citronellal], for which the “whole-cell patch clamp, HEK 293T” value in test [4] is “mutant V513L reduced the response to citronellal and citronellol”. Further, the concentration for a half-maximal effect (EC50) in test [5] worked out at 870 ± 50 µM; in test [3] (nH 3.3), 560 ± 10 µM.

For `CC(C)=CCCC(C)CCO` (centres unmarked) [citronellol], the “whole-cell patch clamp, HEK 293T” value is “the V515A substitution selectively impaired the sensitivity to citronellol and camphor” in test [6]; “mutant V513L reduced the response to citronellal and citronellol” in test [4]. Besides, the half-maximal effective concentration (EC50) in test [5] stood at 490 ± 20 µM; in test [3] (nH 3.6), 300 ± 10 µM.

Regarding `Cl.Cl.Cl.Cl.Cl.Cl.N.N.N.N.N.N.N.N.N.N.N.N.N.N.[O-2].[O-2].[Ru+3].[Ru+3].[Ru+4]` [ruthenium red], the IC50 in test [1] (channel blocker, nH 1.6) is 3.12 ± 0.29 µM.
